Test results published in publication PMC2719774 (European journal of pharmaceutics and biopharmaceutics : …, 2009).
Where “and” joins values, the source holds several entries; their conditions need not be identical. Identical values can stand only once.

Legend:
P-gp = experiment: in vitro; conditions: dog, MDCK-MDR1
in vitro = conditions: dog, MDCK-MDR1
CYP2D6 = CYP2D6 (Homo sapiens, UniProt P10635); experiment: In vitro metabolism screening with recombinant CYP2D6; format: in vitro ADME; conditions: 1 h, 37°C
Chain of CYP2D6 (P10635 whole entry): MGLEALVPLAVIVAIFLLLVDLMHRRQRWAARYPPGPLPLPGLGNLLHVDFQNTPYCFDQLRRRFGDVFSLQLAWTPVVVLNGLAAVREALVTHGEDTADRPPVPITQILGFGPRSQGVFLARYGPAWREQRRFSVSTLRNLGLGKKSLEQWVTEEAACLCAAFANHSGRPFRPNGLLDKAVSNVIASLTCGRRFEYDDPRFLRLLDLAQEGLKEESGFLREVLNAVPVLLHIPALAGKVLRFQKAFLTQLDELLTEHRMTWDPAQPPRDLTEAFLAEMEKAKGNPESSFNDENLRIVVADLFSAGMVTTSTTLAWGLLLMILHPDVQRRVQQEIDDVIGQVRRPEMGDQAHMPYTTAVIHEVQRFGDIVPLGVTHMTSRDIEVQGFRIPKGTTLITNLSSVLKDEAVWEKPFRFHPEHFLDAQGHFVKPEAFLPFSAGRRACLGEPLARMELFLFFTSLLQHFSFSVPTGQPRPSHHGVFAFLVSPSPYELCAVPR

CYP1A1 = biological target: T1, CYP1A1 (Homo sapiens, UniProt P04798); experiment: In vitro metabolism screening with recombinant CYP1A1; format: in vitro ADME; conditions: 1 h, 37°C
T1 sequence (P04798 1-512): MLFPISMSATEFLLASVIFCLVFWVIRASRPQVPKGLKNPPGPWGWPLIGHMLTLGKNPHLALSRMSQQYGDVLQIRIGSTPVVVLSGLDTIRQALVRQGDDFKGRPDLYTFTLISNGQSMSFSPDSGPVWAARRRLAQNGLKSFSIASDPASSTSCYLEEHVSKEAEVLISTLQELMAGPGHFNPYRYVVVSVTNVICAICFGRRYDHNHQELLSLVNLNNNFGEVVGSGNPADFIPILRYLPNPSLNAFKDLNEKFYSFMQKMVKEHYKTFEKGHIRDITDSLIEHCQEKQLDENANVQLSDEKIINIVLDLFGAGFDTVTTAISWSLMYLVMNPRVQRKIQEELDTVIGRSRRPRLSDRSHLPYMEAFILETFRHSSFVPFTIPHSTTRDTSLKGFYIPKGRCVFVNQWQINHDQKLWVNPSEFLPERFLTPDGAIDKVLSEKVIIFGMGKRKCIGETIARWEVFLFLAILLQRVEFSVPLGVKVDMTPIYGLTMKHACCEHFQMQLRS

CYP2C18 = biological target: T2, CYP2C18 (Homo sapiens, UniProt P33260); experiment: In vitro metabolism screening with recombinant CYP2C18; format: in vitro ADME; conditions: 1 h, 37°C
T2 sequence (P33260 26-490): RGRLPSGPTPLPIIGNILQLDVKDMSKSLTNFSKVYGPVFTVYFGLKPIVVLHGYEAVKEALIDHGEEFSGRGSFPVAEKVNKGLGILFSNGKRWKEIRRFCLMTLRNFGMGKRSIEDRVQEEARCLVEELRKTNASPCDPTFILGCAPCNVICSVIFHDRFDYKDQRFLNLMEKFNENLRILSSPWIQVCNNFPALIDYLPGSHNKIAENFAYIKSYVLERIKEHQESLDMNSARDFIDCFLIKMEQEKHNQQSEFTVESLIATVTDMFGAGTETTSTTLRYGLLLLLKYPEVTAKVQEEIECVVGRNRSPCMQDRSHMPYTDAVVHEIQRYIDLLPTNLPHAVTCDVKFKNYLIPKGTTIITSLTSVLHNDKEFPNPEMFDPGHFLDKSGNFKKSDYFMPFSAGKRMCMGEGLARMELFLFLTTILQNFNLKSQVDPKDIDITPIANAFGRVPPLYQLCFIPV

CYP2E1 = CYP2E1 (Homo sapiens, UniProt P05181); experiment: In vitro metabolism screening with recombinant CYP2E1; format: in vitro ADME; conditions: 1 h, 37°C
Chain of CYP2E1 (P05181 whole entry): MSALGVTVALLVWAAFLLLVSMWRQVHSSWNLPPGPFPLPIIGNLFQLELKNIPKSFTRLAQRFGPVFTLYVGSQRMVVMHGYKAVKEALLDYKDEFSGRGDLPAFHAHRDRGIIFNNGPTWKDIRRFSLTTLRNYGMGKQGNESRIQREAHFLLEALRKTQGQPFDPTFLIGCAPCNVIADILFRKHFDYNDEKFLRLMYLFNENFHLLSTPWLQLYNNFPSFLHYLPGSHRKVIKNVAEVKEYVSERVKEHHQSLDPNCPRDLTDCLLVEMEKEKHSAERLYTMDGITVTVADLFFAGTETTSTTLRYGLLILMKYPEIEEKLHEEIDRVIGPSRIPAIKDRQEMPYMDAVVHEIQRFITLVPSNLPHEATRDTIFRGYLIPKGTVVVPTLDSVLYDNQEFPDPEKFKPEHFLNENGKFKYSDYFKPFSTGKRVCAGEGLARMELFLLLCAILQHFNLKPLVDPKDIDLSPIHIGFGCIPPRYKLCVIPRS

UGT2B7 = biological target: T3, UGT2B7 (Homo sapiens, UniProt P16662); experiment: In vitro metabolism screening with UGT2B7 Supersomes; format: in vitro ADME; conditions: 37°C
T3 sequence (P16662 24-529): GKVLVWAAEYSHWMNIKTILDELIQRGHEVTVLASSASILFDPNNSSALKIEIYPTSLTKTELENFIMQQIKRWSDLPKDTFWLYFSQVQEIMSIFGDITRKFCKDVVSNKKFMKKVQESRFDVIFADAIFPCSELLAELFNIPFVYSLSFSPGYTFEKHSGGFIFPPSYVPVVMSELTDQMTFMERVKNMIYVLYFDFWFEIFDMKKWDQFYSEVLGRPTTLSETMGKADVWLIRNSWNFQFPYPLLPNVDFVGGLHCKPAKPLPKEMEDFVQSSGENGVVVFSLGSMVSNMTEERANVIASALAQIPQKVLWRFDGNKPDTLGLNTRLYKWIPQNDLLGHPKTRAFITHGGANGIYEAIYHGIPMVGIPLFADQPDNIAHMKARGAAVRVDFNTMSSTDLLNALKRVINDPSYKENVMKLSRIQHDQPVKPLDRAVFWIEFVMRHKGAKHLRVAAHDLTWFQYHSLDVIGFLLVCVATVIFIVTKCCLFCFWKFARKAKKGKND

[1] = Single-dose pharmacokinetics and brain distribution in rats; format: in vivo, male Sprague Dawley rats; conditions: rat; for t1/2 / half-life: 10 mg/kg i.p.
[2] = tested on: MDCK-MDR1 cell monolayers; conditions: 5 μM, 37°C, PBS; UV-HPLC limit of detection 100 ng/ml
[3] = humans ref 13; cited from earlier work
P-gp (MDR1) = experiment: in vitro; conditions: dog, MDCK-MDR1
[4] = rhesus monkeys, plasma, single dose ref 24; cited from earlier work
[5] = PET imaging, female baboons ref 25; cited from earlier work
recombinant human P-gp = recombinant human P-gp (Homo sapiens, UniProt P08183); experiment: P-gp ATPase activity; conditions: for Fold Stimulation of P-gp ATPase activity: relative to non treated
Chain of recombinant human P-gp (P08183 whole entry): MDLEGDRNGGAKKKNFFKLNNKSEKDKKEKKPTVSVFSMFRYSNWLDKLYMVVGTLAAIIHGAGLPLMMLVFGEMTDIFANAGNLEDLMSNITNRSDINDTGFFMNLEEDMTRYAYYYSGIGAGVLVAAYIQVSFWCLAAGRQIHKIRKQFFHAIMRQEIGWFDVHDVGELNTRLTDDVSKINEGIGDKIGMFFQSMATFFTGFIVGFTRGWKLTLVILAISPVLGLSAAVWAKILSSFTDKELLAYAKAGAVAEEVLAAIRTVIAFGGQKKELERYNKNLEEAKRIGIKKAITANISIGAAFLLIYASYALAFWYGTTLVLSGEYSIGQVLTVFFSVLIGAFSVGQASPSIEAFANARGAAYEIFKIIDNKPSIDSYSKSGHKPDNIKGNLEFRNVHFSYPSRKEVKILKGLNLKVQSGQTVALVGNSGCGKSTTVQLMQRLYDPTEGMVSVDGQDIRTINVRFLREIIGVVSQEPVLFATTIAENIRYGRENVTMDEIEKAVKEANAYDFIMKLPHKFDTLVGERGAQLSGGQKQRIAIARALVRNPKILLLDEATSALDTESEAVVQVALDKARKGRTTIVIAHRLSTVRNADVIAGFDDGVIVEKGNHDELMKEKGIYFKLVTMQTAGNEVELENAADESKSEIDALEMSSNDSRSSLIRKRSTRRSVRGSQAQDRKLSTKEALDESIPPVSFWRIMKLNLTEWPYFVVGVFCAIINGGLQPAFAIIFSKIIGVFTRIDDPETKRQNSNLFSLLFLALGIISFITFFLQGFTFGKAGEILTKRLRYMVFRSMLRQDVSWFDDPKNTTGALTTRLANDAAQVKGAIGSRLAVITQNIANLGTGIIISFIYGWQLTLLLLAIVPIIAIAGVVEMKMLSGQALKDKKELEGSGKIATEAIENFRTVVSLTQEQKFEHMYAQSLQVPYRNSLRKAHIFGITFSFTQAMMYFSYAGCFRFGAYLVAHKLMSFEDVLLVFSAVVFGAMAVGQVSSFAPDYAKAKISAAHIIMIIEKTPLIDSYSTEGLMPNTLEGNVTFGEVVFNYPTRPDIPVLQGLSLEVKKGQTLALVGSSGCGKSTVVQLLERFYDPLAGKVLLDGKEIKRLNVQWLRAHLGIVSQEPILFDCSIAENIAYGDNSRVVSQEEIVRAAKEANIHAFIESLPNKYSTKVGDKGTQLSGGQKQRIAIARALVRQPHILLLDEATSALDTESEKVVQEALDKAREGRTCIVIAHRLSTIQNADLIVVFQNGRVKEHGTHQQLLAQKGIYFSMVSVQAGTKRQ

[6] = male, Sprague Dawley, brain, ip, 10 mg/kg
[7] = male, Sprague Dawley, plasma, ip, 10 mg/kg

Compound: CC(=O)O[C@H]1C(=O)[C@@]2(C)[C@H]([C@H](OC(=O)c3ccccc3)[C@]3(O)C[C@H](OC(=O)[C@H](O)[C@@H](NC(=O)c4ccccc4)c4ccccc4)C(C)=C1C3(C)C)[C@]1(OC(C)=O)CO[C@@H]1C[C@@H]2O [paclitaxel]
- efflux ratio (P-gp): 15.2

Compound: OC[C@@H](O)[C@@H](O)[C@H](O)[C@H](O)CO [Mannitol, mannitol]
- Papp (in vitro): 3.23 ×10⁻⁶ cm/s

Compound: COC(=O)[C@@H]1C[C@H](OC(C)=O)C(=O)[C@H]2[C@@]1(C)CC[C@H]1C(=O)O[C@H](c3ccoc3)C[C@]21C [Salvinorin A]
- % reduction of initial concentration (CYP2D6; 5 μM): 14.7±0.80% and 14.7(± 0.80) %
- % reduction of initial concentration (CYP2D6; 50 μM): 10(± 1.2) %
- % reduction of initial concentration (CYP1A1; 5 μM): 31.1±1.20% and 31.1(±1.20) %
- % reduction of initial concentration (CYP1A1; 50 μM): 5.3(±2) %
- % reduction of initial concentration (CYP2C18; 5 μM): 20.6(±1.00) %
- % reduction of initial concentration (CYP2C18; 50 μM): 6(±1.2) %
- % reduction of initial concentration (CYP2E1; 5 μM): 22(±0.80) %
- % reduction of initial concentration (CYP2E1; 50 μM): 6.4(±1.6) %
- % reduction of initial concentration (UGT2B7; 5 μM, two hour incubation): 51(± 4.00) %
- % reduction of initial concentration (UGT2B7; 10 μM, 1 h): 18.1(± 5.20) %
- % reduction of initial concentration (UGT2B7; 50 μM, 1 h): 7(±5.60) %
- t1/2 ([1]; brain): 36.1 min
- Kp ([1]; male, Sprague Dawley, brain and plasma, ip, 10 mg/kg): 0.05
- AUC(0-inf) [1, 6]: 20.6 ng·h/mL
- AUC(0-t) [1, 6]: 13 ng·h/mL
- Cmax [1, 6]: 23.9 ng/mL
- Tmax [1, 6]: 10 min
- half-life ([1]; male, Sprague Dawley, brain, ip, 10 mg/kg, t1/2, brain): 36 min
- Tmax ([1]; male, Sprague Dawley, plasma and brain, ip, 10 mg/kg): 10 to 15 min
- AUC(0-inf) [1, 7]: 410 ng·h/mL
- AUC(0-t) [1, 7]: 348 ng·h/mL
- CL/F [1, 7]: 433 mL/min/kg
- Cmax [1, 7]: 345 ng/mL
- Tmax [1, 7]: 15 min
- k el [1, 7]: 0.000153 s⁻¹
- half-life ([1]; male, Sprague Dawley, plasma, ip, 10 mg/kg, t1/2, plasma): 75 min
- k el ([1]; male, Sprague-Dawley, brain, ip, 10 mg/kg): 3.19e-05 s⁻¹
- Vd/F ([1]; male, Sprague-Dawley, plasma, ip, 10 mg/kg): 47.1 L/kg
- t1/2 ([1]; plasma): 75.4 min
- absorptive transport (Papp A→B) [2]: not detected
- duration of hallucinogenic experience [3]: ≤ 15 min
- time to appearance of hallucinogenic experience [3]: less than 1 min
- Papp B→A at 5 μM (P-gp (MDR1)): 40.7 ×10⁻⁶ cm/s
- elimination half-life [4]: 56.6 ± 24.8 min
- time to peak brain uptake after dosing [5]: 40 s
- rate of ATP consumption (P-gp ATPase activity) (recombinant human P-gp; 2.5 μM): 50.94 ± 17.87 pmol/μg P-gp/min
- Fold Stimulation of P-gp ATPase activity (recombinant human P-gp; 2.5 μM): 2.39
- rate of ATP consumption (P-gp ATPase activity) (recombinant human P-gp; 5 μM): 47.48 ± 3.36 pmol/μg P-gp/min and 47.78 ± 3.36 ^a pmol/μg P-gp/min
- Fold Stimulation of P-gp ATPase activity (recombinant human P-gp; 5 μM): 2.24
- rate of ATP consumption (P-gp ATPase activity) (recombinant human P-gp; 10 μM): 41.14 ± 5.86 pmol/μg P-gp/min and 41.14 ± 5.86 ^b pmol/μg P-gp/min
- Fold Stimulation of P-gp ATPase activity (recombinant human P-gp; 10 μM): 1.93
- rate of ATP consumption (P-gp ATPase activity) (recombinant human P-gp; 25 μM): 31.08 ± 21.18 pmol/μg P-gp/min
- Fold Stimulation of P-gp ATPase activity (recombinant human P-gp; 25 μM): 1.46
